Results taken from ChEMBL document CHEMBL1177792, “Pre-clinical characterization of aryloxypyridine amides as histamine H3 receptor antagonists: identification of candidates for clinical development” (Bioorg Med Chem Lett, 2010).
pIC50, pKi: −log10 of the molar value. Calls of active or inactive are those of the source. No cut-off for these calls is given here.

Assays:
[1] = Metabolic stability in rat liver microsomes assessed as compound remaining after 30 mins; type: ADME, Microsome; settings: read-out: Stability
[2] = Metabolic stability in human liver microsomes assessed as compound remaining after 30 mins; type: ADME, Microsome; settings: read-out: Stability
Rattus norvegicus [3] = test: Ex vivo receptor occupancy of histamine H3 receptor in Wistar rat brain at 10 mg/kg, po after 1 hr by autoradiography; type: functional
[4] = Drug level in Wistar rat brain at 10 mg/kg, po after 1 hr; type: ADME, organism-based; parameters: dose 10 mg/kg, route oral; settings: read-out: Drug uptake
[5] = Plasma concentration in Wistar rat at 10 mg/kg, po after 1 hr; type: ADME, organism-based; parameters: dose 10 mg/kg, route oral; settings: read-out: Drug uptake
[6] = Clearance in Sprague-Dawley rat at 1 mg/kg, iv and 10 mg/kg, po; type: ADME, organism-based; settings: in vivo
[7] = Volume of distribution at steady state in Sprague-Dawley rat at 1 mg/kg, iv and 10 mg/kg, po; type: ADME, organism-based; settings: in vivo, read-out: Vdss
[8] = Half life in Sprague-Dawley rat at 1 mg/kg, iv and 10 mg/kg, po; type: ADME, organism-based; settings: in vivo
[9] = Bioavailability in Sprague-Dawley rat at 1 mg/kg, iv and 10 mg/kg, po; type: ADME, organism-based; settings: in vivo
[10] = Clearance in Beagle dog at 1 mg/kg, iv and 5 mg/kg, po; type: ADME, organism-based, Canis lupus familiaris; settings: in vivo
[11] = Volume of distribution at steady state in Beagle dog at 1 mg/kg, iv and 5 mg/kg, po; type: ADME, organism-based, Canis lupus familiaris; settings: in vivo, read-out: Vdss
[12] = Half life in Beagle dog at 1 mg/kg, iv and 5 mg/kg, po; type: ADME, organism-based, Canis lupus familiaris; settings: in vivo
[13] = Bioavailability in Beagle dog at 1 mg/kg, iv and 5 mg/kg, po; type: ADME, organism-based, Canis lupus familiaris; settings: in vivo
[14] = Clearance in BALB/c mouse at 1 mg/kg, iv and 10 mg/kg, po; type: ADME, organism-based; settings: in vivo
[15] = Volume of distribution at steady state in BALB/c mouse at 1 mg/kg, iv and 10 mg/kg, po; type: ADME, organism-based; settings: in vivo, read-out: Vdss
[16] = Half life in BALB/c mouse at 1 mg/kg, iv and 10 mg/kg, po; type: ADME, organism-based; settings: in vivo
[17] = Bioavailability in BALB/c mouse at 1 mg/kg, iv and 10 mg/kg, po; type: ADME, organism-based; settings: in vivo
[18] = target: T1, Voltage-gated inwardly rectifying potassium channel KCNH2 (Homo sapiens, UniProt Q12809); test: Displacement of radiolabeled astemizole from human ERG
T1 sequence (Q12809 whole entry): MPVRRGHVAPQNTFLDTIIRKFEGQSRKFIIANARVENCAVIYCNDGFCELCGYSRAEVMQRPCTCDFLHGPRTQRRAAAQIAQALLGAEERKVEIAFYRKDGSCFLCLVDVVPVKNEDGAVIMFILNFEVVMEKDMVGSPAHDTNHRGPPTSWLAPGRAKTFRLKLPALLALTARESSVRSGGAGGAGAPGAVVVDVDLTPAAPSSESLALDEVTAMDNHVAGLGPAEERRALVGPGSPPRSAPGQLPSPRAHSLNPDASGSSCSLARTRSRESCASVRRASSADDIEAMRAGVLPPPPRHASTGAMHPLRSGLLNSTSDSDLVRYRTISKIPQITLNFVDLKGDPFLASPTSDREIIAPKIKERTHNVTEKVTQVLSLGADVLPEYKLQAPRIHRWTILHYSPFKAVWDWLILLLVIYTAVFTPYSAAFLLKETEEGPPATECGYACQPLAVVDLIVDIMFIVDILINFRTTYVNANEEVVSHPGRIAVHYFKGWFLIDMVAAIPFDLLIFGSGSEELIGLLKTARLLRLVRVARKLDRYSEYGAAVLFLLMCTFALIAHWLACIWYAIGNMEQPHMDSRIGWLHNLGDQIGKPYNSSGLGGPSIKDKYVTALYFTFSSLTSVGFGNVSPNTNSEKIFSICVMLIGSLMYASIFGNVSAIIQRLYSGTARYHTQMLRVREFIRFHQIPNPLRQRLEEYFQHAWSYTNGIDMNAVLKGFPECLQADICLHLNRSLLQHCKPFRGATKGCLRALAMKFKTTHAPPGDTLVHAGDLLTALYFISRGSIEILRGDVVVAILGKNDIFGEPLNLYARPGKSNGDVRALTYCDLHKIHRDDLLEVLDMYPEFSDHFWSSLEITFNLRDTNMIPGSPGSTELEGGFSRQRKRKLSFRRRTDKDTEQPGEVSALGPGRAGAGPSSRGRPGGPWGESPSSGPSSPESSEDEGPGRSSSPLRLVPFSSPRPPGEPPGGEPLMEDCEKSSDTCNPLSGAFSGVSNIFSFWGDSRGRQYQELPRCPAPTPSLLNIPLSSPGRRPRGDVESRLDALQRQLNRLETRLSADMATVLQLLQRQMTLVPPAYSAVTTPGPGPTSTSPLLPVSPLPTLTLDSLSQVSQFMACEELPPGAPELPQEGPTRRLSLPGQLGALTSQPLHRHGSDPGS

hERG (KCNH2) = hERG (KCNH2) (Homo sapiens, UniProt Q12809); test: Displacement of radiolabeled astemizole from human ERG at 10 uM; settings: probe radiolabeled astemizole
hERG (KCNH2), sequence (Q12809 whole entry): as above

[19] = target: T1, Voltage-gated inwardly rectifying potassium channel KCNH2; test: Inhibition of human ERG by patch clamp technique
[20] = Permeability from apical to basolateral side of human Caco-2 cells; type: ADME, cell-based; settings: read-out: permeability
[21] = Permeability from basolateral to apical side of human Caco-2 cells; type: ADME, cell-based; settings: read-out: permeability
[22] = Solubility in simulated gastric fluid; type: physicochemical
[23] = Solubility in water; type: physicochemical
Cytochrome P450 3A4 = Cytochrome P450 3A4 (Homo sapiens, UniProt P08684); test: Inhibition of CYP3A4 at 10 uM; type: ADME
Cytochrome P450 3A4, sequence (P08684 whole entry): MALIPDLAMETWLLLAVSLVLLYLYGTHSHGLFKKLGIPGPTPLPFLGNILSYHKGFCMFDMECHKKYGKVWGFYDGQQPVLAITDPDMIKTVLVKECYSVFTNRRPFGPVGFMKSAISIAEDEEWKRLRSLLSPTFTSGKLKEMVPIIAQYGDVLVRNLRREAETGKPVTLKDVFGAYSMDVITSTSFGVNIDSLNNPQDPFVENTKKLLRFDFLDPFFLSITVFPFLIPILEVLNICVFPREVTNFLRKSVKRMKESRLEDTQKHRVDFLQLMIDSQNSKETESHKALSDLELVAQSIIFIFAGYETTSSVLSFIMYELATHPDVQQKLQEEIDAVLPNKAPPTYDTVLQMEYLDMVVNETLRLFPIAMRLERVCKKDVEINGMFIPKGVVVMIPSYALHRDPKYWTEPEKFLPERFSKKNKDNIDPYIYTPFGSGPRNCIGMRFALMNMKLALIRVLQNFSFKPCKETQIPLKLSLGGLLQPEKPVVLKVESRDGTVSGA

Cytochrome P450 2D6 = Cytochrome P450 2D6 (Homo sapiens, UniProt P10635); test: Inhibition of CYP2D6 at 10 uM; type: ADME
Cytochrome P450 2D6, sequence (P10635 whole entry): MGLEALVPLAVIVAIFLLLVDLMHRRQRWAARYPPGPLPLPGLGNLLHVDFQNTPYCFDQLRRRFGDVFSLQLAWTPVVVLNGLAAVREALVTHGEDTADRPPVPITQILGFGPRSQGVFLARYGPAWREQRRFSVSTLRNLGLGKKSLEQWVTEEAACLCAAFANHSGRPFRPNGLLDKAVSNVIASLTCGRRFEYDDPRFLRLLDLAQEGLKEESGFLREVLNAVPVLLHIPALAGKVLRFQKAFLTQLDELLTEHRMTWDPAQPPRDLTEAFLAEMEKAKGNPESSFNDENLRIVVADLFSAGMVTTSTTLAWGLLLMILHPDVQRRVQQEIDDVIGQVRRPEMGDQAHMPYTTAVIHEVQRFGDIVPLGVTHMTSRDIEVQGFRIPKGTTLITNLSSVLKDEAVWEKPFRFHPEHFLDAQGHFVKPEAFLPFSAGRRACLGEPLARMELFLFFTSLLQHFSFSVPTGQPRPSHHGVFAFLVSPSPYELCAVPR

Cytochrome P450 2C9 = Cytochrome P450 2C9 (Homo sapiens, UniProt P11712); test: Inhibition of CYP2C9 at 10 uM; type: ADME
Cytochrome P450 2C9, sequence (P11712 whole entry): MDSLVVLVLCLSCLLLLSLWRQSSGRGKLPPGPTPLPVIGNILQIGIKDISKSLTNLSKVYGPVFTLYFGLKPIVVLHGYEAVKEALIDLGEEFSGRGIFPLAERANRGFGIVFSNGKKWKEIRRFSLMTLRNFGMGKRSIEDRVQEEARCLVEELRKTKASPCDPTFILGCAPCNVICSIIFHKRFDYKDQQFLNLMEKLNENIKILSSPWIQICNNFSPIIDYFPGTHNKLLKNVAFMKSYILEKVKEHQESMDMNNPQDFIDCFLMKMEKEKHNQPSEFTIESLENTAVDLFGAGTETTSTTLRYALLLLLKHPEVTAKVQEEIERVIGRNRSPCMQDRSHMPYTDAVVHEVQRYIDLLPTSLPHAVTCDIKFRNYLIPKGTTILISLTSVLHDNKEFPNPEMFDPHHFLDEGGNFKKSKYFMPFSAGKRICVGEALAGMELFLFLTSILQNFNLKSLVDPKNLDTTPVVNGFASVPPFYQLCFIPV

Rattus norvegicus [24] = test: Ex vivo receptor occupancy of histamine H3 receptor in Wistar rat brain at 3 mg/kg, po after 30 mins by [3H]R-alpha-methylhistamine bingind autoradiography; type: functional
[25] = Plasma concentration in Wistar rat at 3 mg/kg, po after 30 mins; type: ADME, organism-based; parameters: dose 3 mg/kg, route oral; settings: read-out: Drug uptake
[26] = Fraction unbound in rat plasma; type: ADME, cell-free
Rattus norvegicus [27] = test: Increase of histamine release in rat frontal cortex at 0.3 to 3 mg/kg, sc measured up to 300 mins; type: functional, organism-based
Brain = test: Drug level in rat brain at 3 mg/kg, sc; type: ADME, organism-based; parameters: dose 3 mg/kg, route subcutaneous; settings: in vivo, read-out: Drug uptake
Plasma = test: Plasma concentration in rat at 3 mg/kg, sc; type: ADME, organism-based; parameters: dose 3 mg/kg, route subcutaneous; settings: in vivo, read-out: Drug uptake
Rattus norvegicus [28] = test: Increase of wake duration in rat at 10 mg/kg, sc; type: functional, organism-based; parameters: dose 10 mg/kg
Rattus norvegicus [29] = test: Increase of wake duration in rat at 10 mg/kg, s.c.
Histamine H3 receptor [30] = target: T2, Histamine H3 receptor (Homo sapiens, UniProt Q9Y5N1); test: Displacement of [125I]-iodoproxyfan from human recombinant histamine H3 receptor expressed in human SK-N-MC cells after 1 hr by scintillation counting; type: cell-based
T2 sequence (Q9Y5N1 whole entry): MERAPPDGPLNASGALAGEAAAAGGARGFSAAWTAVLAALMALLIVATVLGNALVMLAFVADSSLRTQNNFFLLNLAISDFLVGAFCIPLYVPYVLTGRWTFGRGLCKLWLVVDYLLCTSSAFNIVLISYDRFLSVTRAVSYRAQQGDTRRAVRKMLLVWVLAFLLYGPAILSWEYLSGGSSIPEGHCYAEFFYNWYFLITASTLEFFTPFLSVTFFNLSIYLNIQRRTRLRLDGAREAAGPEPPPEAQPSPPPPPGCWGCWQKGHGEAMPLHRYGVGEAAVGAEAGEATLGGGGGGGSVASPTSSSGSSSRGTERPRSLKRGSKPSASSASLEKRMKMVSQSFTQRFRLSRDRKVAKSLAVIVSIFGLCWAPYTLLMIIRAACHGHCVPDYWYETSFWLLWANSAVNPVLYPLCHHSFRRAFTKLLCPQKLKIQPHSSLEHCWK

Histamine H3 receptor [31] = target: T2, Histamine H3 receptor; test: Antagonist activity at human histamine H3 receptor expressed in human SK-N-MC cells assessed as inhibition of forskolin-induced cAMP accumulation after 6 hrs; type: functional, cell-based; settings: read-out: pA2 (converted)
Histamine H3 receptor [32] = target: T3, Histamine H3 receptor (Rattus norvegicus, UniProt Q9QYN8); test: Antagonist activity at rat histamine H3 receptor expressed in human SK-N-MC cells assessed as inhibition of forskolin-induced cAMP accumulation after 6 hrs; type: functional, cell-based; settings: read-out: pA2 (converted)
T3 sequence (Q9QYN8 whole entry): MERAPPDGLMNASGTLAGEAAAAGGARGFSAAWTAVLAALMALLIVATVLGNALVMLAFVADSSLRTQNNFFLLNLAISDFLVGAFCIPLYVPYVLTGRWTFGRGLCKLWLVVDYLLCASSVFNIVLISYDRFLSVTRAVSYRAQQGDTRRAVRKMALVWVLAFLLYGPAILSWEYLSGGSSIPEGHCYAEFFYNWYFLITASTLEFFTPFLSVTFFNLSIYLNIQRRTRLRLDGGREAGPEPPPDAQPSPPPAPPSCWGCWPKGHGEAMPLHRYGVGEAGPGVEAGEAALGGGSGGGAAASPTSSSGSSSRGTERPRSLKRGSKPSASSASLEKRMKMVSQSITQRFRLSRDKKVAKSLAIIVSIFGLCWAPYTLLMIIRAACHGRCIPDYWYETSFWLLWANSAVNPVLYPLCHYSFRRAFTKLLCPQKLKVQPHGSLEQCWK

Histamine H3 receptor [33] = target: T3, Histamine H3 receptor; test: Binding affinity to histamine H3 receptor in rat brain; type: tissue-based
Rattus norvegicus [34] = test: Ex vivo receptor occupancy of histamine H3 receptor in Wistar rat brain at 1 mg/kg, po after 60 mins by [3H]R-alpha-methylhistamine bingind autoradiography; type: functional
[35] = Plasma concentration in Wistar rat at 1 mg/kg, po after 60 mins; type: ADME, organism-based; parameters: dose 1 mg/kg, route oral; settings: read-out: Drug uptake
Rattus norvegicus [36] = test: Increase of histamine release in rat frontal cortex at 3 to 30 mg/kg, po measured up to 180 mins; type: functional, organism-based
Rattus norvegicus [37] = test: Increase of wake duration in rat at 30 mg/kg, s.c.

Compound | remaining at 0.5 h [1] [%] | remaining at 0.5 h [2] [%] | Activity (Rattus norvegicus [3]) [%] | concentration at 1 h [4] [nM] | concentration at 1 h [5] [nM] | clearance [6] [mL/min/kg] | Vd [7] [L/kg] | half-life [8] [h] | bioavailability [9] [%] | clearance [10] [mL/min/kg] | Vd [11] [L/kg] | half-life [12] [h] | bioavailability [13] [%] | clearance [14] [mL/min/kg] | Vd [15] [L/kg] | half-life [16] [h] | bioavailability [17] [%] | pIC50 [18] | inhibition at 10 µM (hERG (KCNH2)) [%] | pIC50 [19] | further results
O=C(c1ccc(Oc2ccc(F)cc2)nc1)N1CCCN(C2CCC2)CC1 [JNJ-39220675] | 63 | 87 | 94 | 2650 | 1480 | 49 | 3.5 | 1.2 | 50 | 35 | 7.2 | 2.6 | 28 | 94 | 8.7 | 1.1 | 28 | < 5.00 | 0 | 5.46 | Papp A→B [20]: 78 ×10⁻⁶ cm/s; Papp B→A [21]: 36 ×10⁻⁶ cm/s; solubility [22]: > 5000 µg/mL; solubility [23]: > 5000 µg/mL; Activity (Cytochrome P450 3A4): Not Active; Activity (Cytochrome P450 2D6): Not Active; Activity (Cytochrome P450 2C9): Not Active; Activity (Rattus norvegicus [24]): 90%; concentration at 0.5 h [25]: 150 ng/mL; fraction unbound [26]: 0.15; Activity (Rattus norvegicus [27]): Active; concentration (Brain): 956 nM; concentration (Plasma): 257 nM; Activity (Rattus norvegicus [28]): Active; Activity (Rattus norvegicus [29]): Active
N#Cc1cccc(Oc2ccc(C(=O)N3CCCN(C4CCC4)CC3)cn2)c1 | 87 | 99 | 87 | 960 | 6020 | 41 | 1.4 | 0.7 | 89 | 21 | 1.6 | 0.9 | 29 | 97 | 4.4 | 0.8 | 21 | < 5.00 | 23 | < 5.00 | pKi (Histamine H3 receptor [30]): 8.74; Kb (Histamine H3 receptor [31]): 0.407 nM; Kb (Histamine H3 receptor [32]): 9.55 nM; pKi (Histamine H3 receptor [33]): 7.96; Papp A→B [20]: 77 ×10⁻⁶ cm/s; Papp B→A [21]: 25 ×10⁻⁶ cm/s; solubility [22]: > 1000 µg/mL; solubility [23]: > 100000 µg/mL; Activity (Cytochrome P450 3A4): Not Active; Activity (Cytochrome P450 2D6): Not Active; Activity (Cytochrome P450 2C9): Not Active; Activity (Rattus norvegicus [34]): 90%; concentration at 1 h [35]: 160 ng/mL; fraction unbound [26]: 0.79; Activity (Rattus norvegicus [36]): Active; Activity (Rattus norvegicus [37]): Active
